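Exposure lasted 48 hours, with cells grown in 96-well plates and compounds tested at five concentrations. GI50 marks 50% less growth.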 Calls of active or inactive are those of the source. No stated cut-off is given here; in the data, active = GI50 up to about 1.1 µM and inactive = higher.

Common to all, as to assay: inhibition of tumour cell growth, NCI panel, 48 h
Test [1] has as its system A549.
Test [2] has as its system HCT-116.
Test [3] has as its system M14.
Test [4] has as its system SN12C.
The subject of test [5] is 786-0.
In test [6] the test system is TK-10.
Test [7] has as its system NCI/ADR-RES.
Test [8] has as its system UO-31.
Test [9] concerns MDA-N.
Test [10] deals with IGROV-1.
Test [11] has as its system K562.
The test system of test [12] is HOP-62.
The subject of test [13] is RXF 393.
For test [14], the system named is UACC-62.
Test [15] relates to A498.
Test [16] deals with CCRF-CEM.
In test [17] the test system is CAKI-1.
Test [18] relates to NCI-H522.
In test [19] the test system is LOX IMVI.
For test [20], the system named is SF-539.

`Cc1ccc(-c2ccc3c(c2)Sc2ccccc2O3)n1C`: the GI50 in test [1] was 0.675 µM (active); in [2], 0.167 µM (active); in [3], 0.371 µM (active); in [4], 0.306 µM (active); in [5], 0.553 µM (active); in test [6], 0.627 µM (active). For the same compound, the GI50 was 0.206 µM (active) in test [7]; 0.67 µM (active) in [8]; 0.0285 µM (active) in test [9]; 0.232 µM (active) in test [10]; 0.137 µM (active) in [11]; 0.614 µM (active) in test [12]. The GI50 in [13] is 0.283 µM (active); in test [14] it was 0.0593 µM (active); in test [15], 0.416 µM (active); in [16], 0.213 µM (active); in [17], 0.303 µM (active); in test [18], 0.0564 µM (active). Also, the GI50 in [19] is 0.524 µM (active); in test [20], 0.308 µM (active).

Turning to `COc1cc(OC)cc(Oc2nc3cc(F)c(F)cc3nc2-c2ccccc2)c1`, the GI50 in test [1], in test [2], in test [3], in test [4], in [5] and in [6] was > 100 µM (inactive) each time. In addition, the GI50 in [7], in [8], in [9], in test [10], in [12] and in test [13] was > 100 µM (inactive) throughout. In addition, the GI50 in test [14], in test [15], in [16], in test [17], in test [18] and in test [19] was > 100 µM (inactive) throughout. The GI50 in test [20] is > 100 µM (inactive).

For the compound `CCCCC(=O)OC[n+]1ccc2c(C)c3[nH]c4ccc(OC)cc4c3c(C)c2c1`, the GI50 was 0.308 µM (active) in [1]; 0.0718 µM (active) in test [2]; 1.04 µM (active) in test [3]; 0.146 µM (active) in test [4]; 0.118 µM (active) in test [5]; 2.64 µM (inactive) in test [6]. For the same compound, the GI50 in [7] was 0.234 µM (active); in [8], 1.04 µM (active); in test [9] it was 0.321 µM (active); in [10] it was 0.284 µM (active); in test [11], 0.0702 µM (active); in test [12], 0.47 µM (active). Further, the GI50 in test [13] was 0.929 µM (active); in test [14], 0.979 µM (active); in test [15] it was 0.923 µM (active); in [16], 0.0684 µM (active); in [17], 1.02 µM (active); in test [18] it was 0.695 µM (active). Further, the GI50 in [19] is 0.271 µM (active); in test [20], 0.367 µM (active).

Regarding `CC(C)(C)C(O)CC(O)(C(F)(F)F)C(F)(F)F` (centres undefined), the GI50 in test [1], in test [2], in [3], in test [4], in test [5] and in [6] was > 100 µM (inactive) each time. The GI50 in test [7], in test [8], in test [9], in test [10], in [11] and in test [12] was > 100 µM (inactive) throughout. Also, the GI50 in test [13], in test [14], in test [15], in test [16], in test [17] and in [18] was > 100 µM (inactive) in each case. Besides, the GI50 in test [19] and in [20] was > 100 µM (inactive) each time.

With `C=CC(=O)c1ccc2c(c1)OCCOCCOCCOCCOCCO2`, the GI50 in [1] is > 100 µM (inactive); in test [2], 25.9 µM (inactive); in test [3] it was 20.3 µM (inactive); in test [4] it was 23.8 µM (inactive); in test [5], 16.1 µM (inactive); in test [6], 17 µM (inactive). In addition, the GI50 in test [7] is 25.3 µM (inactive); in test [8], 26.2 µM (inactive); in test [9] it was 39.2 µM (inactive); in test [10], > 100 µM (inactive); in [11] it was 35.6 µM (inactive); in [12] it was > 100 µM (inactive). For the same compound, the GI50 in test [13] was 17.2 µM (inactive); in test [14] it was 30.3 µM (inactive); in test [15] it was > 100 µM (inactive); in test [16], > 27.5 µM (inactive); in test [17] it was 34.4 µM (inactive); in test [18], 9.48 µM (inactive). For the same compound, the GI50 in test [19] and in test [20] was 17.7 µM (inactive) throughout.

`O=Cc1ccc(-c2nccc3c2[nH]c2ccccc23)o1`: the GI50 is 73.1 µM (inactive) in test [1]; 55.7 µM (inactive) in [2]; 91.6 µM (inactive) in [3]; > 100 µM (inactive) in [4]; > 89.9 µM (inactive) in test [5]; 7.36 µM (inactive) in test [6]. For the same compound, the GI50 in test [7] was > 100 µM (inactive); in test [8], > 100 µM (inactive); in [9], > 100 µM (inactive); in test [10], > 73.3 µM (inactive); in [11], > 100 µM (inactive); in [12], 42.8 µM (inactive). Further, the GI50 in [13] was 22.2 µM (inactive); in test [14] it was 26.9 µM (inactive); in [15], 0.585 µM (active); in test [16] it was > 100 µM (inactive); in [17], 4.91 µM (inactive); in test [18] it was 64.4 µM (inactive). The GI50 in test [19] was > 56.2 µM (inactive); in test [20] it was > 100 µM (inactive).

For `CCOC(=O)CCC(NC(=O)c1ccc(Oc2nc3c(N)cc(C(F)(F)F)cc3nc2-c2ccccc2)cc1)C(=O)OCC` (centres undefined), the GI50 was 7.78 µM (inactive) in [1]; 2.14 µM (inactive) in test [2]; 47 µM (inactive) in test [3]; 45.9 µM (inactive) in [4]; 3.42 µM (inactive) in [5]; 14.6 µM (inactive) in test [6]. For the same compound, the GI50 is 1.34 µM (inactive) in test [7]; 70 µM (inactive) in test [8]; 63.1 µM (inactive) in test [9]; 33.4 µM (inactive) in [10]; > 100 µM (inactive) in [11]; 6.98 µM (inactive) in test [12]. The GI50 is 0.402 µM (active) in test [13]; > 46.3 µM (inactive) in test [14]; > 35.5 µM (inactive) in [15]; > 100 µM (inactive) in test [16]; 2.82 µM (inactive) in [17]; 5.96 µM (inactive) in test [18]. In addition, the figures for the GI50 in test [19] and in [20] were > 27.1 µM (inactive) and 1.67 µM (inactive), respectively.

Regarding `CC(=O)NC1C(OCc2ccccc2)OC(CO)C(O)C1OC(C)C(=O)NC(C)C(=O)NC(CCC(=O)NCCCCNc1c2ccccc2nc2cccc([N+](=O)[O-])c12)C(N)=O` (centres undefined), the GI50 in [1] is 0.0404 µM (active); in test [2], 0.00748 µM (active); in test [3] it was 0.277 µM (active); in [4] it was 0.0284 µM (active); in test [5], 0.0198 µM (active); in [6], 0.0202 µM (active). Besides, the GI50 in test [7] was 0.123 µM (active); in test [8], 0.0738 µM (active); in test [9] it was 0.0232 µM (active); in [10], 0.24 µM (active); in test [11], 0.0106 µM (active); in test [12], 0.0791 µM (active). Also, the GI50 in test [13] was 0.0199 µM (active); in test [14] it was 0.0286 µM (active); in [15] it was 0.131 µM (active); in test [16], 0.114 µM (active); in test [17] it was 0.0325 µM (active); in [18] it was 0.0705 µM (active). For the same compound, the GI50 is 0.216 µM (active) in test [19] and 0.0512 µM (active) in [20].

For `Cc1[nH]c(-c2ccccc2)c2nc(N(C)C)oc(=O)c12`, the GI50 in [1], in test [2], in test [3], in [4], in test [5] and in test [6] was > 100 µM (inactive) in each case. The GI50 in [7], in test [8], in test [9], in test [10], in [11] and in test [12] was > 100 µM (inactive) each time. Also, the GI50 in [13] is > 100 µM (inactive); in test [14], > 100 µM (inactive); in test [15] it was > 100 µM (inactive); in test [16] it was > 100 µM (inactive); in test [17], 0.212 µM (active); in test [18] it was > 100 µM (inactive). Moreover, the GI50 in [19] and in test [20] was > 100 µM (inactive) throughout.

In the case of `CO[C@@H]1C=C[C@@]23c4cc5c(cc4C(O)N(CC2O)C3C1)OCO5` (some centres undefined), the GI50 in test [1] is 3.35 µM (inactive); in [2], 2.97 µM (inactive); in test [3], 3.14 µM (inactive); in [4], 4.15 µM (inactive); in [5], 3.21 µM (inactive); in test [6], 4.19 µM (inactive). The GI50 is 13.9 µM (inactive) in test [7]; 3.68 µM (inactive) in test [8]; 3.2 µM (inactive) in [9]; 3.78 µM (inactive) in test [10]; 3.48 µM (inactive) in [11]; 4.43 µM (inactive) in [12]. Besides, the GI50 was 5.62 µM (inactive) in [13]; 3.13 µM (inactive) in test [14]; 3.15 µM (inactive) in [15]; 1.79 µM (inactive) in test [16]; 3.58 µM (inactive) in test [17]; 3.66 µM (inactive) in test [18]. The GI50 in test [19] was 3.52 µM (inactive); in [20], 9.23 µM (inactive).
